PMC8839375, “Alpha-Glucosidase Inhibition and Molecular Docking of Isolated Compounds from Traditional Thai Medicinal Plant, Neuropeltis racemosa Wall” (Molecules, 2022)
Like-named read-outs stand apart in the source and are kept apart here. Marks after values point to notes of the source that are not given here.

Legend:
alpha-glucosidase [1] = biological target: T1, alpha-glucosidase (Saccharomyces cerevisiae, UniProt P53341); assay: enzyme kinetic study (Lineweaver-Burk and secondary plots); type: biochemical; settings: for inhibition type: Lineweaver-Burk plot; for Ki′: inhibition constant when inhibitor bound with enzyme-substrate complex, secondary plot
T1 sequence (P53341 whole entry): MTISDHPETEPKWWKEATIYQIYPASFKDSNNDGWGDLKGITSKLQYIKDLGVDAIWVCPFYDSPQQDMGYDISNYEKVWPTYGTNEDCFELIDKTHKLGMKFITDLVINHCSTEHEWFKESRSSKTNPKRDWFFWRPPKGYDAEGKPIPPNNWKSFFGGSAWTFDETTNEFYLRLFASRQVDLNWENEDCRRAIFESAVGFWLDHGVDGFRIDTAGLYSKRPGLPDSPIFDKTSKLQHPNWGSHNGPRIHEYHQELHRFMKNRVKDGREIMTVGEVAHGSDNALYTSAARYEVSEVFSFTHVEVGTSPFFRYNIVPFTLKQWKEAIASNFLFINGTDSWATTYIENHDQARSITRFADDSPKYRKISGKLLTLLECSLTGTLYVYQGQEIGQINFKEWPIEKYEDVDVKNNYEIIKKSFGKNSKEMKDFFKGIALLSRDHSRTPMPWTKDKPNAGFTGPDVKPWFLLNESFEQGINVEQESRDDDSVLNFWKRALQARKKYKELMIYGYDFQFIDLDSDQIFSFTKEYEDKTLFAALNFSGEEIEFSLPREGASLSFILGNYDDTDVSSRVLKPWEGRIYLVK
Protocol: The double reciprocal Lineweaver–Burk plot was used to determine the mode of inhibition, while the secondary plots conducted the inhibition constants. […] Briefly, the enzyme inhibition procedure was performed as mention above. The 6 concentrations of pNPG (5–0.1 mM), the fixed enzyme concentration (1 unit/mL), and the 3 concentrations of each effective sample were evaluated for the manner of inhibition.

alpha-glucosidase [2] = biological target: T1, alpha-glucosidase; settings: cited from earlier work; for IC50: ref 13
alpha-amylase = test system: alpha-amylase; set-up: method as in PMID 31185767; settings: ref 15; cited from earlier work

SMILES | inhibition type (alpha-glucosidase [1]) | inhibition type (alpha-glucosidase [2]; ref 11, 13) | inhibition type (alpha-glucosidase [2]; ref 12) | IC50 (alpha-glucosidase [2]) [nM] | Ki′ (alpha-glucosidase [1]) [µM] | other results
C[C@H]1O[C@H](O[C@H]2[C@H](O)[C@@H](O)[C@@H](O[C@H]3[C@H](O)[C@@H](O)C(O)O[C@@H]3CO)O[C@@H]2CO)[C@H](O)[C@@H](O)[C@@H]1N[C@H]1C=C(CO)[C@@H](O)[C@H](O)[C@H]1O (stereo partly drawn) [Acarbose, acarbose, reference compound] | Competitive |  |  |  |  | 
COc1cc2ccc(=O)oc2cc1O [Compound 1, scopoletin] | mixed-type |  |  |  |  | inhibition type (alpha-glucosidase [2]; ref 20): competitive; alpha-amylase inhibitory activity (alpha-amylase): potent inhibitory activity; inhibition type (alpha-glucosidase [1]; listed as Scopoletin (1)): Mixed
COc1cc(C(=O)O)cc(OC)c1O [Compound 2, syringic acid] |  |  |  |  |  | inhibition type (alpha-glucosidase [2]; ref 9): either in a competitive or an uncompetitive manner
COc1cc(/C=C/C(=O)NCCc2ccc(O)cc2)ccc1O [Compound 4, N-trans-feruloyltyramine] | Uncompetitive | uncompetitive | non-competitive | 3580 | 51.81 | Ki′ (alpha-glucosidase [1]; listed as N-trans-feruloyltyramine (4)): 51.81 ^c µM
O=C(/C=C/c1ccc(O)cc1)NCCc1ccc(O)cc1 [Compound 5, N-trans-coumaroyltyramine] | Uncompetitive | uncompetitive | non-competitive | 580 | 1.99 | Ki′ (alpha-glucosidase [1]; listed as N-trans-coumaroyltyramine (5)): 1.99 ^c µM
